Test results as given in patent US10981894B2, “Melanocortin subtype-2 receptor (MC2R) antagonists and uses thereof” (Crinetics Pharmaceuticals, Inc., priority 2018, dated 2021).
pKi: −log10 of the molar value.

Molecular target: hMC2 receptor (Homo sapiens, UniProt Q01718)
Test: hMC2 membrane binding assay ([125I]ACTH (1-39) Tyr23, SPA)
Parameters: scale not given here
Conditions: crude hMC2R membranes from CRE-bla-CHO-K1 cells expressing hMC2 receptor and hMRAP; [125I]ACTH (1-39) Tyr23 0.2 nM; 1.5 hours at room temperature; read-out: MC2R binding potency
In short: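 Ki comes from non-linear regression of SPA scintillation counts. Displacement of 0.2 nM [125I]ACTH(1-39) Tyr23 by compound dose series (usually 0–10,000 nM final) ran 1.5 h at room temperature. Membranes came from CHO-K1 CRE-bla cells stably expressing hMC2R plus hMRAP, bead-coupled in pH 7.4 buffer with 0.2% BSA.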

hMC2 receptor, sequence (Q01718 whole entry): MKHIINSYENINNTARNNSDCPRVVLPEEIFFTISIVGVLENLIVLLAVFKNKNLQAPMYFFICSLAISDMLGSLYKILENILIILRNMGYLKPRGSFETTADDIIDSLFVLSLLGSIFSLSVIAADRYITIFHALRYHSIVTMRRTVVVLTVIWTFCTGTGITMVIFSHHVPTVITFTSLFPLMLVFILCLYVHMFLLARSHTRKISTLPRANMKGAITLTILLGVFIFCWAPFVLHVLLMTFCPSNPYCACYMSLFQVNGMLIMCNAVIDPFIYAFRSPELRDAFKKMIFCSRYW
hMC2 receptor, sequence (Q8TCY5 whole entry partner): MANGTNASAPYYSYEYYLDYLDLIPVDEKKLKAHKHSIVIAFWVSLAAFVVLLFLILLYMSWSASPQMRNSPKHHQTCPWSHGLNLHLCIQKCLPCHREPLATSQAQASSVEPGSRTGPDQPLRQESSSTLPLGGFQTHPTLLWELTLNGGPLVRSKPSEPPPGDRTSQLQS

Structure (SMILES) | pKi
CCOc1ccccc1-c1ccc(N2CCN(C(=O)C3(CC(F)(F)F)CCC3)C[C@H]2CC)c(C(=O)N[C@@H]2CCN(C)C2)n1 [Compound 1-349, 6-(2-ethoxyphenyl)-3-[(2R)-2-ethyl-4-[1-(2,2,2-trifluoroethyl)cyclobutanecarbonyl]piperazin-1-yl]-N-[(3R)-1-methylpyrrolidin-3-yl]pyridine-2-carboxamide] | > 8.00
CCOc1ncccc1-c1ccc(N2CCN(C(=O)N3CCc4cccc(F)c43)C[C@H]2CC)c(C(=O)N[C@@H]2CCNC2)n1 [Compound 1-350, 2′-ethoxy-5-[(2R)-2-ethyl-4-(7-fluoro-2,3-dihydro-1H-indole-1-carbonyl)piperazin-1-yl]-N-[(3R)-pyrrolidin-3-yl]-[2,3′-bipyridine]-6-carboxamide] | > 8.00
CCOc1ncccc1-c1ccc(N2CCN(C(=O)O[C@H](c3ccccc3)C(F)(F)F)C[C@H]2CC)c(C(=O)N[C@@H]2CCNC2)n1 [Compound 1-351, (1R)-2,2,2-trifluoro-1-phenylethyl (3R)-4-(2′-ethoxy-6-{[(3R)-pyrrolidin-3-yl]carbamoyl}-[2,3′-bipyridin]-5-yl)-3-ethylpiperazine-1-carboxylate] | > 8.00
CCOc1ncccc1-c1ccc(N2CCN(C(=O)C3(c4ccccc4)CCCC3)C[C@H]2CC)c(C(=O)N[C@@H]2CCNC2)n1 [Compound 1-352, 2′-ethoxy-5-[(2R)-2-ethyl-4-(1-phenylcyclopentanecarbonyl)piperazin-1-yl]-N-[(3R)-pyrrolidin-3-yl]-[2,3′-bipyridine]-6-carboxamide] | > 8.00
CCOc1ncccc1-c1ccc(N2CCN(C(=O)C3(c4ccccc4)CCC3)C[C@H]2CC)c(C(=O)N[C@@H]2CCNC2)n1 [Compound 1-353, 2′-ethoxy-5-[(2R)-2-ethyl-4-(1-phenylcyclobutanecarbonyl)piperazin-1-yl]-N-[(3R)-pyrrolidin-3-yl]-[2,3′-bipyridine]-6-carboxamide] | > 8.00
CCOc1ncccc1-c1ccc(N2CCN(C(=O)C34CCC(CC3(F)F)C4(C)C)C[C@H]2CC)c(C(=O)N[C@@H]2CCNC2)n1 (stereo partly drawn) [Compound 1-354, 5-[(2R)-4-[2,2-difluoro-7,7-dimethylbicyclo[2.2.1]heptane-1-carbonyl]-2-ethylpiperazin-1-yl]-2′-ethoxy-N-[(3R)-pyrrolidin-3-yl]-[2,3′-bipyridine]-6-carboxamide] | > 8.00
CCOc1ccccc1-c1ccc(N2CCN(C(=O)N3CCC[C@@H]3C(C)(C)C)C[C@H]2CC)c(C(=O)N[C@@H]2CCNC2)n1 [Compound 1-356, 3-[(2R)-4-[(2R)-2-tert-butylpyrrolidine-1-carbonyl]-2-ethylpiperazin-1-yl]-6-(2-ethoxyphenyl)-N-[(3R)-pyrrolidin-3-yl]pyridine-2-carboxamide] | > 8.00
CCOc1ncccc1-c1ccc(N2CCN(C(=O)c3ccc(Cl)cc3C(F)(F)F)C[C@H]2CC)c(C(=O)NCCN2CC(F)C2)n1 [Compound 1-357, 5-[(2R)-4-[4-chloro-2-(trifluoromethyl)benzoyl]-2-ethylpiperazin-1-yl]-2′-ethoxy-N-[2-(3-fluoroazetidin-1-yl)ethyl]-[2,3′-bipyridine]-6-carboxamide] | > 8.00
CCOc1ncccc1-c1ccc(N2CCN(C(=O)C3(c4ccccc4)CCC3)C[C@H]2CC)c(C(=O)N[C@@H]2CCN(C)C2)n1 [Compound 1-358, 2′-ethoxy-5-[(2R)-2-ethyl-4-(1-phenylcyclobutanecarbonyl)piperazin-1-yl]-N-[(3R)-1-methylpyrrolidin-3-yl]-[2,3′-bipyridine]-6-carboxamide] | > 8.00
CCOc1ncccc1-c1ccc(N2CCN(C(=O)N3CCc4cccc(C)c43)C[C@H]2CC)c(C(=O)N[C@@H]2CCNC2)n1 [Compound 1-360, 2′-ethoxy-5-[(2R)-2-ethyl-4-(7-methyl-2,3-dihydro-1H-indole-1-carbonyl)piperazin-1-yl]-N-[(3R)-pyrrolidin-3-yl]-[2,3′-bipyridine]-6-carboxamide] | > 8.00
CCOc1ncccc1-c1ccc(N2CCN(C(=O)N3CCc4cccc(C(F)(F)F)c43)C[C@H]2CC)c(C(=O)N[C@@H]2CCNC2)n1 [Compound 1-361, 2′-ethoxy-5-[(2R)-2-ethyl-4-[7-(trifluoromethyl)-2,3-dihydro-1H-indole-1-carbonyl]piperazin-1-yl]-N-[(3R)-pyrrolidin-3-yl]-[2,3′-bipyridine]-6-carboxamide] | > 8.00
CCOc1ccccc1-c1ccc(N2CCN(C(=O)N3CCC[C@H]3C(F)(F)F)C[C@H]2CC)c(C(=O)NCC2CN(C)C2)n1 [Compound 1-362, 6-(2-ethoxyphenyl)-3-[(2R)-2-ethyl-4-[(2S)-2-(trifluoromethyl)pyrrolidine-1-carbonyl]piperazin-1-yl]-N-[(1-methylazetidin-3-yl)methyl]pyridine-2-carboxamide] | > 8.00
CCOc1ncccc1-c1ccc(N2CCN(C(=O)C3(C(F)(F)F)CCCC3)C[C@H]2CC)c(C(=O)N[C@H]2CCN(C)C2)n1 [Compound 1-363, 2′-ethoxy-5-[(2R)-2-ethyl-4-[1-(trifluoromethyl)cyclopentanecarbonyl]piperazin-1-yl]-N-[(3S)-1-methylpyrrolidin-3-yl]-[2,3′-bipyridine]-6-carboxamide] | > 8.00
CCOc1ncccc1-c1ccc(N2CCN(C(=O)N3CCc4cccc(C#N)c43)C[C@H]2CC)c(C(=O)N[C@@H]2CCNC2)n1 [Compound 1-365, 5-[(2R)-4-(7-cyano-2,3-dihydro-1H-indole-1-carbonyl)-2-ethylpiperazin-1-yl]-2′-ethoxy-N-[(3R)-pyrrolidin-3-yl]-[2,3′-bipyridine]-6-carboxamide] | > 8.00
CCOc1ncccc1-c1ccc(N2CCN(C(=O)c3ccc(C(F)(F)F)s3)C[C@H]2CC)c(C(=O)N[C@@H]2CCNC2)n1 [Compound 1-368, 2′-ethoxy-5-[(2R)-2-ethyl-4-[5-(trifluoromethyl)thiophene-2-carbonyl]piperazin-1-yl]-N-[(3R)-pyrrolidin-3-yl]-[2,3′-bipyridine]-6-carboxamide] | > 8.00
CCOc1ncccc1-c1ccc(N2CCN(C(=O)C3(c4ccc(F)cc4F)CCC3)C[C@H]2CC)c(C(=O)N[C@@H]2CCN(C)C2)n1 [Compound 1-371, 5-[(2R)-4-[1-(2,4-difluorophenyl)cyclobutanecarbonyl]-2-ethylpiperazin-1-yl]-2′-ethoxy-N-[(3R)-1-methylpyrrolidin-3-yl]-[2,3′-bipyridine]-6-carboxamide] | > 8.00
CCOc1ncccc1-c1ccc(N2CCN(C(=O)N3CCC[C@H]3C(F)(F)F)C[C@H]2CC)c(C(=O)N[C@@H]2CCN(C)C2)n1 [Compound 1-372, 2′-ethoxy-5-[(2R)-2-ethyl-4-[(2S)-2-(trifluoromethyl)pyrrolidine-1-carbonyl]piperazin-1-yl]-N-[(3R)-1-methylpyrrolidin-3-yl]-[2,3′-bipyridine]-6-carboxamide] | > 8.00
CCOc1ncccc1-c1ccc(N2CCN(C(=O)N3CCC[C@H]3C(F)(F)F)C[C@H]2CC)c(C(=O)N[C@H]2CCN(C)C2)n1 [Compound 1-373, 2′-ethoxy-5-[(2R)-2-ethyl-4-[(2S)-2-(trifluoromethyl)pyrrolidine-1-carbonyl]piperazin-1-yl]-N-[(3S)-1-methylpyrrolidin-3-yl]-[2,3′-bipyridine]-6-carboxamide] | > 8.00
CCOc1ccccc1-c1ccc(N2CCN(C(=O)N3CCC[C@H]3C(F)(F)F)C[C@H]2CC)c(C(=O)N[C@@H]2CCN(C)C2)n1 [Compound 1-374, 6-(2-ethoxyphenyl)-3-[(2R)-2-ethyl-4-[(2S)-2-(trifluoromethyl)pyrrolidine-1-carbonyl]piperazin-1-yl]-N-[(3R)-1-methylpyrrolidin-3-yl]pyridine-2-carboxamide] | > 8.00
CCOc1ccccc1-c1ccc(N2CCN(C(=O)N3CCC[C@H]3C(F)(F)F)C[C@H]2CC)c(C(=O)N[C@H]2CCN(C)C2)n1 [Compound 1-375, 6-(2-ethoxyphenyl)-3-[(2R)-2-ethyl-4-[(2S)-2-(trifluoromethyl)pyrrolidine-1-carbonyl]piperazin-1-yl]-N-[(3S)-1-methylpyrrolidin-3-yl]pyridine-2-carboxamide] | > 8.00
CCOc1ncccc1-c1ccc(N2CCN(C(=O)OC(C(C)(C)C)C(F)(F)F)C[C@H]2CC)c(C(=O)N[C@@H]2CCN(C)C2)n1 (stereo partly drawn) [Compound 1-376, 1,1,1-trifluoro-3,3-dimethylbutan-2-yl (3R)-4-(2′-ethoxy-6-{[(3R)-1-methylpyrrolidin-3-yl]carbamoyl}-[2,3′-bipyridin]-5-yl)-3-ethylpiperazine-1-carboxylate] | > 8.00
CCOc1ncccc1-c1ccc(N2CCN(C(=O)O[C@@H](c3ccccc3)C(F)(F)F)C[C@H]2CC)c(C(=O)N[C@@H]2CCNC2)n1 [Compound 1-377, (1S)-2,2,2-trifluoro-1-phenylethyl (3R)-4-(2′-ethoxy-6-{[(3R)-pyrrolidin-3-yl]carbamoyl}-[2,3′-bipyridin]-5-yl)-3-ethylpiperazine-1-carboxylate] | > 8.00
CCOc1ncccc1-c1ccc(N2CCN(C(=O)c3cc(Cl)sc3Cl)C[C@H]2CC)c(C(=O)N[C@@H]2CCN(C)C2)n1 [Compound 1-378, 5-[(2R)-4-(2,5-dichlorothiophene-3-carbonyl)-2-ethylpiperazin-1-yl]-2′-ethoxy-N-[(3R)-1-methylpyrrolidin-3-yl]-[2,3′-bipyridine]-6-carboxamide] | > 8.00
CCOc1ncccc1-c1ccc(N2CCN(C(=O)c3sc(Cl)cc3Cl)C[C@H]2CC)c(C(=O)N[C@@H]2CCN(C)C2)n1 [Compound 1-380, 5-[(2R)-4-(3,5-dichlorothiophene-2-carbonyl)-2-ethylpiperazin-1-yl]-2′-ethoxy-N-[(3R)-1-methylpyrrolidin-3-yl]-[2,3′-bipyridine]-6-carboxamide] | > 8.00
